# In US20250352458A1, “IMPROVEMENTS IN OR RELATING TO EXTRACTS” (Givaudan SA, priority 2020, published 2025):
# Where “and” joins values, the source holds several entries; their conditions need not be identical. Equal entries are not always repeated.
# Assays:
# hiPSC derived sebocytes = assay: In vitro lipogenesis inhibition in sebocytes derived from iPS with three ethnicities; type: cell-based, human; conditions: 10 μM (RA10), each ethnicity, arachidonic acid induced
# [1] = system: Propionibacterium acnes (C. acnes) phylotype IA1 ATCC 6919; assay: MIC evaluation, optical density and percentage of inhibition; type: cell-based
# Excerpt: (§1) The minimum inhibitory concentration of the following active ingredients has been assessed: • Mangifera indica extract (in propanediol/water 75/25); • Vehicule (propanediol/water 75/25, expressed as Activolo3-75%); • “Pool Mangiferin” which is the pure molecule mangiferin at the same concentration in the Mangifera indica extract in propanediol/water 75/25. • “Pool Mangifera” with is the mix of the 4 molecules (mangiferin, maclurin-C-glucoside, irifluophenone-C-glucoside, gallotanin) at the same concentration in the Mangifera indica extract in propane-diol/water 75/25. […] After two days, the bacterial concentration was adjusted in reinforced clostridial broth to obtain a solution at 1.106 CFU/ml (5.104 CFU/well). […] Concentrations are expressed in % (m/v). […] The diluted bacterial suspension was added to columns 2 to 12. RCB medium was added to column 1 as negative control. Optical density was determined, which correlates to the bacterial growth.
# [2] = system: H. influenzae (ATCC 49766); assay: as above; type: cell-based, Haemophilus influenza
# Excerpt: The minimum inhibitory concentration of the following active ingredients has been assessed: • Mangifera indica extract (in propanediol/water 75/25); • Vehicule (propanediol/water 75/25, expressed as Activolo3-75%); • “Pool Mangiferin” which is the pure molecule mangiferin at the same concentration in the Mangifera indica extract in propanediol/water 75/25. • “Pool Mangifera” with is the mix of the 4 molecules (mangiferin, maclurin-C-glucoside, irifluophenone-C-glucoside, gallotanin) at the same concentration in the Mangifera indica extract in propane-diol/water 75/25.
# H. influenzae (ATCC 49766) was cultured in Mueller Hinton broth as recommended by ATCC with 5% CO2. The Bacterial concentration was adjusted in Mueller Hinton broth to obtain a solution at 1.106 CFU/ml (5.104 CFU/well) (launch of culture at D-2). […] Two day later, the inhibition of H. influenzae was evaluated using Colony counter IUL instruments, flash and go model (reading at D2).
# Concentrations are expressed in % (m/v).
# The diluted bacterial suspension was added to columns 2 to 12. RCB medium was added to column 1 as negative control.
# Optical density was determined, which correlates to the bacterial growth. Thereafter, an inhibition value (%) was determined for each condition using the following formula: […]
# The percentage of inhibition must be higher or equal than 90% to reach the MIC.
# [3] = system: C. granulosum (ATCC 25564); assay: as above; type: cell-based, Cutibacterium granulosum
# Excerpt: as §1
# S. aureus (ATCC 33592) = assay: as above; type: cell-based, Staphylococcus aureus
# Excerpt: The minimum inhibitory concentration of the following active ingredients has been assessed: • Mangifera indica extract (in propanediol/water 75/25); • Vehicule (propanediol/water 75/25, expressed as Activolo3-75%); • “Pool Mangiferin” which is the pure molecule mangiferin at the same concentration in the Mangifera indica extract in propanediol/water 75/25. • “Pool Mangifera” with is the mix of the 4 molecules (mangiferin, maclurin-C-glucoside, irifluophenone-C-glucoside, gallotanin) at the same concentration in the Mangifera indica extract in propane-diol/water 75/25. S. aureus: The day before the experiment S. aureus (ATCC 33592) was plated and grown overnight at 37° C. Colonies were resuspended in 5 mL of TSB (Tryptic Soy Broth) to obtain a 0.5 McFarland D O (≈1.10^8 CFU/ml) (launch of culture at D-1). […] Concentrations are expressed in % (m/v). […] The diluted bacterial suspension was added to columns 2 to 12. RCB medium was added to column 1 as negative control. Optical density was determined, which correlates to the bacterial growth.
# [4] = system: human sebaceous glands of skin explants; assay: Ex vivo sebum quantification, lipids of sebaceous glands by GC/MS; type: cell-based
# Protocol: Skin explants from lifting of 3 donors (average 56.7 years old) were treated in systemic every day during 5 days in presence of dihydrotestosterone (DHT) at 30UM to induce an increase of lipogenesis mimicking a high production of sebum condition (stimulated condition) or left untreated (control condition). In parallel, skin explants were treated in presence of 0.5% of dibenzoyle peroxide (POB, positive reference) or with the Mangifera indica extract at 1% and 2%.
# The tissues are extracted with an aqueous cocktail overnight at 4° C. They are then treated to take off the epidermis. A specific technique is used to recover the glands attached to these hair shafts.
# After rinsing in an isotonic medium, the epidermis and its appendages are transferred to a watch glass. The sebaceous glands attached to the hair shaft of hair follicles are cut at the level of the pilosebaceous canal and deposited against the walls of the recovery vials. The sebaceous glands are recovered after dilaceration of the epidermal fragments. The glands are collected in a batch of 10 units. A washing of the glands is then performed to eliminate any contaminations of non-sebaceous origin. The sebum is then extracted with an organic cocktail overnight at room temperature. From this lipid extract, purification was carried out in order to isolate the different classes of lipids.
# The identification and quantification of the different classes of lipids was realized by GC/MS.
# The results are expressed in percent of the stimulated control (Untreated+DHT 30 μM). Bonferroni test multi comparison was used to do statistical analysis with #p<0.1, *p<0.05, **p<0.01, ***p<0.001.
# [5] = system: sebaceous glands of skin explants NativeSkin; assay: Ex vivo sebaceous gland 3D volume in skin explants; type: cell-based, human; conditions: linoleic acid at 10% in Carbopol, 7 days, vs control
# Protocol: The test was carried out on 4 skin explants NativeSkin® (average 40.75 years old) from pelvic area, a full-thickness skin biopsy embedded in a solid and nourishing matrix while its epidermal surface is left in contact with air. The skin biopsy is firmly embedded in the matrix that prevents any lateral diffusion of topically applied formulations. The skin explants were treated topically once a day for 7 days in presence of linoleic acid at 10% in Carbopol Ultrez 10 in order to stimulate the lipogenesis and mimic the condition of sebum excess (stimulated condition) or treated with Carbopol only (control condition). This induction mimics a high production of sebum. In parallel, skin explants were treated in presence of Mangifera indica extract at 1% and 2% formulated in Carbopol. After treatment, skin explants were fixed in formalin. After fixation, skin explants were cleared with methanol and a mix of Benzyl Benzoate and Benzyl Alcohol. All samples were observed by fluorescence light sheet microscopy (SPIM, homemade fabrication). Stack of images were taken per sample. 3D pictures of the glands were reconstructed and the size of each sebaceous gland was quantified using Amira® software. Results were represented with the mean volume of sebaceous gland +/−standard error to the mean. […] The results are expressed in percent of the stimulated control (10% linoleic acid). […]
# [6] = system: human sebocyte cell line SEBO662AR; assay: In vitro lipogenesis inhibition in human sebocytes cell line (Bodipy lipid labeling); type: cell-based
# Protocol: The sebocytes were seeded in 96-well plates (50 000 cells/well) and cultured for 24 hours in culture medium. The medium was then removed and replaced by assay medium containing the tested products including Mangifera indica extract at 0.3%, Mangiferin alone or pooled active molecules (four main phytomarkers) at their equivalent dosage in the extract at 0.3%. In the control assay medium, no product was contained. The cells were preincubated for 4 hours at those conditions. Then, the lipogenic mix (containing vitamin C, vitamin D3, insulin and calcium, and no androgens) was added in order to mimic the condition of excess of sebum, and the cells were incubated for 7 days. At mid-term, i.e. after 3 days of incubation, half of the medium was removed and the treatments were renewed (including lipogenic mix stimulation). […]
# At the end of the incubation, the cells were rinsed, fixed and permeabilized. […] The labeling was quantified by the measurement of the fluorescence intensity normalized to the total number of cells (Integration of numerical data with the Developer Toolbox 1.5, GE Healthcare software). Results were expressed as Fluorescence intensity normalized to the number of cells, % stimulated control and % inhibition. The fluorescence intensity was analyzed exclusively in the lipid droplets (image analysis program based on object segmentation). […]
# [7] = Ciprofloxacin 16 10^−4 % (m/v), plate col. 8-12
# [8] = DHT 30 μM stimulation vs untreated
# [9] = POB at 0.5%, DHT stimulated, 5 days
smiles,measurement,setting,value
CC1=C(/C=C/C(C)=C/C=C/C(C)=C\C(=O)O)C(C)(C)CCC1 [13-cis-retinoic-acid],lipids production,hiPSC derived sebocytes,significant reduction
"O=C(O)c1cn(C2CC2)c2cc(N3CCNCC3)c(F)cc2c1=O [Ciprofloxacin, reference compound]","Percentage of inhibition, C. acnes",[1]; [7],99.3% and 98.8%
same,inhibition of P. acnes (FIG. 9),[1]; Ciprofloxacin from 1×10^−4%,99%
same,inhibition of P. acnes,"[1]; Ciprofloxacin, text of Table 3b",99%
same,"Percentage of inhibition, H. influenza",[2]; [7],99.7% and 99.0%
same,inhibition of H. influenza,"[2]; Ciprofloxacin, text of Table 6b",99%
same,"Percentage of inhibition, C. granulosum",[3]; [7],97.8% and 99.0% and 98.5%
same,inhibition of C. granulosum,"[3]; Ciprofloxacin, text of Table 4b",99%
same,"Percentage of inhibition, S. aureus",S. aureus (ATCC 33592); [7],99.4%
same,inhibition of S. aureus,"S. aureus (ATCC 33592); Ciprofloxacin, text of Table 5b",99%
"C[C@]12CCC(=O)C[C@@H]1CC[C@@H]1[C@@H]2CC[C@]2(C)[C@@H](O)CC[C@@H]12 [DHT, dihydrotestosterone]",cholesterol content of sebum,[4]; [8],no effect
same,free fatty acids content of sebum,[4]; [8],significant increase
same,squalene content of sebum,[4]; [8],significant increase
same,triglycerides content of sebum,[4]; [8],significant increase
"CCCCC/C=C\C/C=C\CCCCCCCC(=O)O [Linoleic acid, linoleic acid]",change of 3D volume of sebaceous glands,[5],+37%
O=c1c2cc(O)c(O)cc2oc2cc(O)c([C@@H]3O[C@H](CO)[C@@H](O)[C@H](O)[C@H]3O)c(O)c12 [Mangiferin],reduction of lipogenesis compared with lipogenic mix condition,[6]; Mangiferin at the same amount as available in the extracts,−22%
"CCCCCCCCCCCCCCOc1ccc(C(=O)OCC(=O)N(C)CC(=O)OCC)o1 [Olumacostat glasaretil, reference compound]",reduction of lipid production compared with lipogenic mix condition,"[6]; Olumacostat glasaretyl at 1 μm, 7 days",−37%
"O=C(OOC(=O)c1ccccc1)c1ccccc1 [POB, dibenzoyle peroxide]",free fatty acids content of sebum,[4]; [9],significant reduction
same,squalene content of sebum,[4]; [9],significant reduction
same,triglycerides content of sebum,[4]; [9],significant reduction
